Entries after “also recorded” stand apart in the source; their conditions may differ.
Tested on: patients with alcoholic hepatitis
Assay: Pharmacodynamic signals (Lille score, MELD, bilirubin, survival) in Phase 2a trial
Assay type: in vivo, human
Protocol: As described in more detail below, a total of 19 patients were enrolled into an open-label Phase 2a multi-center trial, of whom 15 had Maddrey's Discriminant Function (MDF) ≥32 (Severe Alcoholic Hepatitis (SAH)), 12 had MELD scores at 21-30, and 11 had baseline serum bilirubin levels >8 mg/dL. All patients received IV infused 25HC3S (at 30, 90, or 150 mg) on Day 1 and Day 4 (if still hospitalized), and were followed for 28-days. The final enrollment was 19 patients comprised of: 8 patients (4 moderate and 4 severe) dosed at 30 mg, 7 patients (3 moderate and 4 severe) dosed at 90 mg, and 4 patients (4 severe) dosed at 150 mg.
• Study Drug A 25HC3S sodium salt solution contained: • 30 mg/mL 25HC3S sodium salt; • 240 mg/mL hydroxypropyl-beta-cyclodextrin; and • 50 mmole phosphate buffer • The 25HC3S sodium salt solution was diluted in 100 mL 5% dextrose or 0.9% sodium chloride infusion solution: • Dose 1: 30 mg of 25HC3S sodium salt in 100 mL 5% dextrose or 0.9% sodium chloride • Dose 2: 90 mg of 25HC3S sodium salt in 100 mL 5% dextrose or 0.9% sodium chloride • Dose 3: 150 mg of 25HC3S sodium salt in 100 mL 5% dextrose or 0.9% sodium chloride • 25HC3S sodium salt was administered by slow intravenous infusion over 2 hrs (50 mL/h) until the entire dose is given at Day 1 and Day 4. If a patient met the hospital discharge criteria prior to the second dose, the patient received only one dose instead of two doses. • Study Procedure The study was conducted in two parts. Part A included patients with MELD scores of 11-20 (moderate AH patients), and Part B included patients with MELD of scores 21-30. The doses of 25HC3S sodium salt administered were 30 mg and 90 mg for Part A and 30 mg, 90 mg and 150 mg for Part B, with 4 patients per dose group per Part (except for only 3 patients in the 90 mg cohort of Part A). All patients were followed to Day 28. • The study started in 4 moderate AH patients (Part A) at 30 mg dose level. After completing the dosing, a Dose Escalation Committee (DEC) reviewed safety, tolerability and pharmacokinetic (PK) data from all 4 patients and determined that it was safe to move forward to dose 4 severe AH patients (Part B) at the same dose level, 30 mg, as well as escalating the dose level to 90 mg in moderate patients (Part A). The same dose escalation procedure was then conducted in Part B until all 4 patients received 150 mg doses. • A flow diagram of the study is depicted in FIG. 2. Each dose cohort enrolled up to 4 subjects. Study subjects received up to 2 doses of 25HC3S sodium salt. The first dose was administered on Day 1 and, if still hospitalized, the second dose was administered on Day 4. A pharmacokinetic (PK) sample was collected at: Time 0 (pre-dose), 1 hour post-dose initiation, 2 hours (end of infusion), 3 hours post-dose initiation, 4 hours post-dose initiation, 8 hours post-dose initiation, 12 hours post-dose initiation, 24-hours post-dose initiation and 50 hours post-dose initiation.
• 1. Patients with alcoholic hepatitis defined in this clinical trial as: • a. History of heavy alcohol abuse: >40 g/day in females or >60 g/day in males for a minimum period of 6 months, AND • b. Consumed alcohol within 12 weeks of entry into the study, AND • c. Serum bilirubin >3 mg/dL AND AST>ALT, but less than 300 U/L, AND • d. MELD score between 11-30, inclusive A listing of the baseline laboratory characteristics of the subjects of each cohort is shown in the Table below. […]

[1] = All patients with 30 or 90 mg (14), Day 7
[2] = Baseline bilirubin >8 mg/dL (11), Day 7
[3] = Baseline bilirubin >8 mg/dL with 30 or 90 mg (8), Day 7
[4] = MELD 21-30 with 30 or 90 mg (8), Day 7
[5] = SAH with 30 or 90 mg (11), Day 7

With `C[C@H](CCCC(C)(C)O)[C@H]1CC[C@H]2[C@@H]3CC=C4C[C@@H](OS(=O)(=O)O)CC[C@]4(C)[C@H]3CC[C@]12C` [25HC3S, 5-cholesten-3,25-diol, 3-sulfate] the “patients with a Lille score below 0.45 (number of patients)” value (18 AH patients who returned for Day 7 visit) was 16/18, the “reductions from baseline in bilirubin (day 7 and 28) and MELD (day 28) compared with University of Louisville historical control” value (19 patients) was “statistically significantly greater reductions” and the survival rate (28-day follow-up period, all patients) was 100%. For the same compound, the “Responders (Lille score <0.45)” value (All Patients (18), Day 7) was 89%, the “Lille Median (1st, 3rd quartile)” value [1] was 0.05 (0.04, 0.19) and the “Responders (Lille score <0.45)” value [1] was 100%. For the same compound, the “Lille Median (1st, 3rd quartile)” value [2] was 0.10 (0.05, 0.20), the “Responders (Lille score <0.45)” value [2] was 82% and the “Lille Median (1st, 3rd quartile)” value [3] was 0.10 (0.05, 0.19). For the same compound, the “Responders (Lille score <0.45)” value [3] was 100%, the serum bilirubin levels (Day 7, one or two doses) was “significantly reduced” and the MELD scores (Day 28, one or two doses) was “significantly reduced”. The “Lille Median (1st, 3rd quartile)” value (MELD 21-30 (12), Day 7) was 0.19 (0.11, 0.25), the “Responders (Lille score <0.45)” value (MELD 21-30 (12), Day 7) was 83% and the “Lille Median (1st, 3rd quartile)” value [4] was 0.19 (0.10, 0.19). The “Responders (Lille score <0.45)” value [4] was 100%, the “Lille Median (1st, 3rd quartile)” value (SAH (15), Day 7) was 0.19 (0.05, 0.22) and the “median reduction of MELD from baseline” value (SAH patients treated with 30 or 90 mg, Day 28, p=0.01) was −19.0%. The “MELD score change from baseline” value (SAH patients, Day 28, 1 or 2 doses, p=0.01) was −17.5%, the “Lille Median (1st, 3rd quartile)” value [5] was 0.12 (0.05, 0.19) and the “Responders (Lille score <0.45)” value [5] was 100%. For the same compound, the “Responders (Lille score <0.45)” value (SAH, MDF≥32 (15), Day 7) was 87%, the “reduction from baseline of serum total bilirubin levels” value (all AH patients (n=18), Day 7) was −14% and the “survival through 28-day follow-up period” value (all patients, including SAH) was “survived”. For the same compound, the “Lille score at Day 7” value (all subjects administered 30 mg and 90 mg (FIG. 6)) was “less than 0.45”, the “Lille scores compared with published historical data (Louvet et al., 145 AH patients)” value (p<0.0001) was “significantly lower; also recorded: significantly better” and the “Lille scores compared with University of Louisville historical control (standard of care)” value (p=0.005) was “statistically significantly lower”. For the same compound, the serum bilirubin change (patients with baseline bilirubin >8.0 mg/dL, Day 7, p=0.02) was −25.1% and the “Lille score at Day 7” value (two of the subjects having severe AH administered 150 mg (FIG. 6)) was “greater than 0.45”.

Reference: patent US20220378802A1, “TREATMENT OF ALCOHOLIC HEPATITIS” (Durect Corporation, priority 2019, published 2022)
